{"source": "patent US20210186915A1", "about": "“PHARMACEUTICAL COMPOSITIONS HAVING HIGH DRUG LOADINGS OF MEDIUM CHAIN TRIGLYCERIDES AND METHODS RELATED THERETO” (Cerecin Inc., priority 2018, published 2021)", "key": {"[1]": {"assay": "Visual dissolution study in SLS/water solution (scintillation vials)", "format": "physicochemical", "conditions": "250 mg oil in 10 ml 0.25% or 0.5% SLS in water, stirred 20 minutes", "method": "Visual dissolution studies were conducted at small scale using 20 ml scintillation vials on LMP formulations 1 through 3. The test was conducted at 37° C., 25° C. and 5° C. using a 0.25% Sodium Laurel Sulfate (SLS) in water solution. A heated aluminum block and heated stir plate were used in the study. 500 mg (250 mgA, 25 mgA/mL) of each LMP formulation was added to 10 mL pre-heated 0.25% SLS solution. The samples were stirred using a Teflon stir bar on a heated stir plate to maintain temperature for 20 minutes. After 20 minutes, the LMP suspensions were allowed to settle and were assessed visually.\nFinally the test was repeated using only LMP-1 and a 0.5% SLS/water solution to access if additional surfactant would help with the apparent dissolution by increasing the solubility of the oil in water.\nAn oil dissolution control test was conducted to determine how the caprylic triglyceride (Miglyol 808) oil dissolves into an SLS/water solution. Two SLS stock solutions were made at 0.25% and 0.5% SLS in water. 10 ml of each SLS solution was added to a scintillation vial along with a magnetic stir bar. 250 mg of caprylic triglyceride (Miglyol 808) oil was added to each vial and stirred for 20 minutes. Images were taken after 10 minutes and two days. […] The vial does appear slightly hazy in the 10 minute photo indicating some oil is likely emulsified in the water phase. […]"}, "[2]": {"assay": "USP Type II sink dissolution, 2.0 wt % SLS in pH 6.8 buffer", "format": "physicochemical", "conditions": "for % LC Release, 10μ filtered: 500 mgA in 900 mL, 37° C.", "method": "LMPs 1, 2, and 3 were tested in a USP Type II sink dissolution experiment along with caprylic triglyceride (Miglyol 808) oil. 500 mgA of formulation was dosed into a 1000 mL vessel containing 900 mL of 2.0wt % SLS in pH 6.8 buffer. Samples were taken at 30 minutes and 17.5 hours.\nLMP-5, 7, 9, and 11 formulations were tested in a USP Type II sink dissolution experiment sink performance test using methods outlined described in EXAMPLE 3 (Tables 3-A, 3-B). […] The release rate trends as expected, in that adding more carnauba wax to the LMP matrix slows the dissolution. This is because carnauba wax is more hydrophobic than Compritol 888. […] Adding a pore former to the base LMP-11 formulation may allow for increased dissolution performance by enhancing water permeability while maintaining the desirable physical and handling attributes.\nFormulations BREC1690-155, 156, 160, 161, and 162 were tested in a sink dissolution performance test using methods outlined herein at EXAMPLE 3 (Tables 3-A and 3-B). The dissolution rate was increased by the addition of a water soluble component (PVP 17PF, PVP-VA 64 or poloxamer P407). Dissolution was tested on formulations BREC1690-155, 156, 160, 161, and 162. Comparisons of previous Compritol based LMPs (LMP-2 and LMP-5) and BREC1690- 155, 156, and 162 with a dissolution enhancer are shown in FIG. 22."}}, "data": [{"substance": "caprylic triglyceride [Miglyol 808]", "values": [{"measurement": "oil dissolution control, visual", "setting": "[1]", "result": "majority of the oil floats on top of the water rather than going into solution"}, {"measurement": "% LC Release, centrifuged", "setting": "[2]; 30 minutes", "result": "31.6% ± 2%"}, {"measurement": "% LC Release, 10μ filtered", "setting": "[2]; 30 minutes", "result": "64% (n = 1) % LC"}, {"measurement": "% LC Release, 0.2μ filtered", "setting": "[2]; 17.5 hours", "result": "87% ± 7%"}, {"measurement": "% LC Release, centrifuged", "setting": "[2]; 17.5 hours", "result": "27.3% ± 0.6%"}, {"measurement": "% LC Release, 10μ filtered", "setting": "[2]; 17.5 hours", "result": "46.5% ± 0.5%"}]}]}
